Experimental data reported in patent US6391840B1, “Multiple component bleaching compositions” (Unilever Home & Personal Care USA, division of Conopco, Inc., priority 1999, dated 2002).
Blank lines part the entries; values can stand above or below the molecule they belong to.

Experiments:
[1] = tested on: black mould (Cladosporium cladosporoides), autoclaved mould paste; assay: Bleaching of autoclaved black mould paste on porous ceramic tiles, expert panel score 0-6
Experimental: Hydrogen peroxide solutions with and without imine quat (N-methyl-3,4-dihydroisoquinolinium tosylate) and at various pH values were tested on their ability to bleach black mould in comparison with sodium hypochlorite, which is the standard product used to clean black mould stains. The hydrogen peroxide solutions were all freshly prepared just before testing so as to mimic compositions obtained by mixing appropriate partial compositions on dispensing. In order to obtain reproducible results an autoclaved mould paste was used for the testing.
Cultures of hyphal Cladosporium cladosporoides were prepared on agar jelly. Warm water was used to dissolve the jelly and separate it from the mould hyphae, which were then autoclaved. […]
Small circular pieces of single ply tissue paper were cut to a convenient size and placed on the surface of the ‘mould tile’ test pieces, such that the edges of the test pieces remain uncovered. A fixed quantity of the test solution was allowed to drop onto the surface of the tissue and allowed to soak into the tile. […]
Test pieces were assessed for the level of mould bleaching by an expert panel, using a integer scale running from 0 (no decolorisation) to 6 (complete bleaching). Panel test data for each system was collated and analysed statistically to provide mean scores for each test system. […]

[2] = Bleaching of tea stained cotton cloth (reflectance); details: pH 10.0 or higher, vs 1% sodium hypochlorite pH 12
Excerpt: Tea stained cotton (BC-1) cloth is routinely used in the assessment of laundry bleaches. Here the method was adapted as an easy and readily reproducible indicator of the activity of the composition against a common hydrophilic household soil in comparison with a standard hypochlorite bleach.
Lengths of pre-stained BC-1 cotton cloth was cut into square swatches (2 cm×2 cm). For each composition four replicate cloths were placed in the bottom of a clean glass beaker and covered with the cleaning composition at room temperature. After the required contact time (generally 2 or 5 minutes) had elapsed, the cloths were removed from the cleaning solution using tweezers and immediately immersed in distilled water. The cloths were stirred in the water, and the washing procedure repeated twice more using fresh water each time. Washed cloths were then pressed between two filters to remove excess water and placed on fresh filter papers, in the dark, to dry.
Reflectance measurements were carried out on a Spectraflash 400 instrument. ΔR measurements were calculated using ‘40ptspec’ software, using a portion of untreated cloth from the same BC-1 cloth batch as a standard. Results obtained from each of the four replicate test cloths were then statistically analysed to obtain mean ΔR values for each bleach system.

[3] = Stability tests of imine quat in the presence of hydrogen peroxide at various pH (1H NMR integral ratio; permanganate titration); type: physicochemical; details: pH 8, without hydrogen peroxide, 2% imine quat, three days after preparation
[4] = as above; type: physicochemical
Experimental: The stability of N-methyl-3,4 dihydroisoquinolinium tosylate in the presence of hydrogen peroxide was tested at various pH values. To this end samples were prepared containing 6.0% w/w hydrogen peroxide, 2.0% w/w of the imine quat and 0.01% w/w Dequest™ 2047 (ethylenediamine-tetra[methylene-phosphonic acid] sodium salt, a sequestrant marketed by Monsanto). This is equivalent to a partial composition which together with a second partial composition of the same volume would lead to a final composition with 3% hydrogen peroxide and 1% imine quat.
The pH of the samples was adjusted using 1.0M hydrochloric acid or 2.0M sodium hydroxide as required. During the test the pH of the samples was re-adjusted as indicated using 2.0M sodium hydroxide.
The hydrogen peroxide content was determined by titration against 0.02 M potassium permanganate. […] Complete reaction of 1 equivalent of hydrogen peroxide with 1 equivalent of imine quat would result in a decrease in hydrogen peroxide concentration of 0.2% w/w.
Imine quat stability was monitored using ^1H NMR spectroscopy, by comparing the ratio of the integrals of the iminium proton which appears at 8.85 ppm relative to TMS, with those for the aromatic protons on the inert tosylate counter-ion, which are observed at 7.65 ppm. Loss of imine quat (e.g. through reaction with hydrogen peroxide) is observed as a decrease in the iminium:tosylate integral ratio, and % of imine quat remaining is calculated as integral ratio after storage÷initial integral ratio.

[5] = target pH 5.5, 0 days storage, sample 6.0% H2O2 + 2.0% imine quat
[6] = target pH 5.5, 148 days storage
[7] = target pH 6.0, 148 days storage
[8] = target pH 6.5, 148 days storage
[9] = target pH 7.0, 148 days storage
[10] = target pH 7.5, 148 days storage

Compound: C[N+]1=Cc2ccccc2CC1.Cc1ccc(S(=O)(=O)[O-])cc1 [Imine Quat, N-methyl-3,4-dihydroisoquinolinium tosylate]
effect of adding Imine Quat on mould bleaching over hydrogen peroxide ([1]; pH 10.5 and 11.0): significant improvement in performance
effect of adding Imine Quat on tea stain bleaching [2]: boosts the performance of hydrogen peroxide to values very close to those observed using hypochlorite
% of the original amount of imine quat remaining [3]: 5%
% of the original amount of imine quat still detectable ([4]; pH 8, in the presence of 6% hydrogen peroxide, 4 hours after preparation): 5%
imine quat detectable ([4]; pH 8, in the presence of 6% hydrogen peroxide, one day after preparation): no imine quat was detectable
% Imine Quat remaining [4, 5]: 100%
% Imine Quat remaining [4, 6]: 93%
% Imine Quat remaining ([4]; target pH 6.0, 0 days storage): 100%
% Imine Quat remaining [4, 7]: 83%
% Imine Quat remaining ([4]; target pH 6.5, 0 days storage): 100%
% Imine Quat remaining [4, 8]: 67%
% Imine Quat remaining ([4]; target pH 7.0, 0 days storage): 100%
% Imine Quat remaining [4, 9]: 43%
% Imine Quat remaining ([4]; target pH 7.5, 0 days storage): 100%
% Imine Quat remaining [4, 10]: 33%

% hydrogen peroxide [4, 5]: 6.00%
% hydrogen peroxide [4, 6]: 5.99%
% hydrogen peroxide ([4]; target pH 6.0, 0 days storage): 6.00%
% hydrogen peroxide [4, 7]: 5.95%
% hydrogen peroxide ([4]; target pH 6.5, 0 days storage): 6.00%
% hydrogen peroxide [4, 8]: 5.89%
% hydrogen peroxide ([4]; target pH 7.0, 0 days storage): 6.00%
% hydrogen peroxide [4, 9]: 5.84%
% hydrogen peroxide ([4]; target pH 7.5, 0 days storage): 6.00%
% hydrogen peroxide [4, 10]: 5.69%
Compound: OO [hydrogen peroxide, reference compound]
mould bleaching performance ([1]; pH 5.5): ineffective
